Consider eleven compounds from article PMC9610897, “Cationic Perylene Antivirals with Aqueous Solubility for Studies In Vivo” (Pharmaceuticals, 2022).

Values after ≈ are worked out from the molar mass of the structure shown. Where two headings read alike, the source gives them in different places.

Data set [1] relates to CHIKV. Kind of data set: CHIKV cytopathic effect (CPE) inhibition test. Type of data set: cell-based, Chikungunya virus (CHIKV, strain Nic). The conditions noted are these: for EC50: Chikungunya virus, 120 h, read-out: Antiviral Activity, EC50 ± SD, CHIKV; for Activity against CHIKV (in words): concentrations studied up to 100 μM.
For data set [2], the system named is SARS-CoV-2. Kind of data set: SARS-CoV-2 cytopathic effect (CPE) inhibition test. Type of data set: cell-based, strain PIK35. The conditions noted are these: for EC50: Severe acute respiratory syndrome coronavirus 2, 120 h, CPE inhibition in Vero cells, 5 days, M ± SD, read-out: Antiviral Activity, EC50 ± SD, SARS-CoV-2; for Activity against SARS-CoV-2 (in words): concentrations studied up to 100 μM. The source says:
(§1) The green monkey kidney (Vero) cell line originated from WHO Biologicals, Switzerland (10–87), and the Madin-Darby canine kidney (MDCK) cell line was obtained from the American Type Culture Collection (ATCC CCL-34).
(§2) Viruses and strains used in the present work were severe acute respiratory syndrome-related coronavirus 2 (SARS-CoV-2, strain PIK35, GISAID EPI_ISL_428852), Chikungunya virus (CHIKV, strain Nic, GenBank IDs MN271691-2) and influenza A virus (H1N1, strain A/PR/8/34, ATCC VR-95).
The procedure was described previously. In brief, two-fold dilutions of the compounds were prepared in Dulbecco MEM (Chumakov FSC R&D IBP RAS, Russia) and mixed 1:1 with a virus suspension containing 50–200 TCID50 and incubated for 1 h at 37 °C in a CO2 incubator. The final concentration series started from 100 μM. Then, compound-virus mixtures were added to confluent Vero cell monolayers in 2 replicates. After incubation at 37 °C in a CO2-incubator for 5 days, CPE signs (cell death) were assessed via microscope, and 50% effective concentration (EC50) (compound concentration required to decrease CPE by 50%) was calculated using the Karber method.
Background: Cytopathic effects are the visible damage that an infection or toxin causes in cultured cells.

Data set [3] is described as follows: Cell viability assay in Vero cells (resazurin). The conditions noted are these: green monkey, 5 d, read-out: Cytotoxicity, CC50 ± SD, Vero. Type of data set: cell-based. The method, then: as §1
Two-fold dilutions of the compounds (starting from 100 μM) were prepared in DMEM (Chumakov FSC R&D IBP RAS, Russia) and added to confluent cell monolayers. After 5 days of incubation (37 °C, 5% CO2), the cultural supernatant was substituted with a resazurin solution (25 μg/mL), followed by 4 h incubation (37 °C, 5% CO2). Then, 20 µL of 10% SDS were added to stop the reaction. Fluorescence intensity was measured with Promega GloMax-Multi Detection System (Ex525/Em580–640). Cells treated with dilutions of the compounds and DMSO, but not resazurin, were used to subtract the background fluorescence. All experimental procedures were performed in two replicates. Fluorescence curves were analyzed with Microsoft Excel 2013. 50% Cytotoxic concentrations (CC50) were calculated.
Background: Alamar Blue is a resazurin reagent that responds to reducing activity.

The test system of data set [4] is IAV. Kind of data set: IAV virus yield reduction assay. Type of data set: cell-based, influenza A virus (H1N1, strain A/PR/8/34). To be noted: Influenza A virus; virus yield reduction in MDCK cells, MOI 1, 24 h, M ± SD; read-out: Antiviral Activity, EC50 ± SD, IAV.
Description: as §1, §2
Compound solutions were prepared in DMSO (20 mg/mL). The compounds were weighed in 2 mg amounts and dissolved in 100 μL of DMSO. Then, a series of 3-fold dilutions was prepared, starting from 300 µg/mL, in a cultural medium. The MDCK cell monolayer was treated with compound dilutions and incubated for 1 h in a CO2 incubator at 37 °C. Untreated cells were used as negative control. Afterward, the virus was added (MOI 1), and cells were incubated for 24 h at 37 °C in a CO2 incubator. After incubation, the culture medium was collected, and viral yields were determined by titration. In brief, a series of 10-fold dilutions (10^−7–10^−1) of viral supernatants were prepared in a cultural medium and applied to daily MDCK cell monolayers. Infected cells were incubated for 72 h at 37 °C in a CO2 incubator. The presence of the virus in the culture supernatants was determined using the hemagglutination assay with a 1% suspension of chicken erythrocytes. Viral titer was calculated according to the Reed-and-Muench method and was expressed as 50% tissue infectious doses (TID50) per 100 μL of volume. Inhibition (%) was calculated by comparison with non-treated cells, and EC50 was calculated from inhibitory curves.

The nature of data set [5]: Cell viability assay in MDCK cells (MTT). Type of data set: cell-based, canine. To be noted: dog, read-out: Cytotoxicity, CC50 ± SD, MDCK. The method, then: as §1
Compound solutions were prepared in DMSO (20 mg/mL), and then 2-fold dilutions in cultural medium were prepared starting from 1000 μg/mL. One-day MDCK cell monolayers (over 95% confluency) in 96-well plates ([…]) were washed twice with serum-free alpha-MEM (Thermo-Fisher Scientific, USA) and treated with 100 μL of compound dilutions in 2 replicates. The plates were then incubated for 24 h at 37 °C in a CO2 incubator. Cell viability was assessed using the tetrazolium test (MTT, ApplyChem). Optical density was measured on a Wallac 1420 Victor2 microplate reader (Perkin Elmer, Ramsey, MN, USA) at 535 nm, then CC50 values were calculated.

Data set [6] relates to influenza A/California/7/09/MA virus. Type of data set: in vivo, BALB/c mice.
Data set [7] can be described thus: Solubility in water (photometry). Type of data set: physicochemical. The conditions noted are these: for solubility at 30 min: thermodynamic from solid. The method, then:
The samples were dissolved in DMSO, diluted in series, and photometrically analyzed. The average molar absorption coefficient was calculated from the obtained optical densities of calibration solutions at the absorption maxima. Solubility values were determined as previously described by adding weighed amounts of compounds to distilled water followed by sonication (30 min), centrifugation (12,000 rpm, 10 min), and photometry.

Where [8] appears, read: distilled water, sonication, centrifugation, photometry.

Regarding `O=c1nc(NO)ccn1[C@@H]1O[C@H](CO)[C@@H](O)[C@H]1O` [NHC, N^4-hydroxycytidine, reference compound], the EC50 (commonly the concentration giving half of the maximal effect) in data set [1] (CPE inhibition in Vero cells, 5 days, M ± SD) stood at 9.7 µM; in data set [2] it was 7.4 µM. In data set [3], the 50% cytotoxic concentration (CC50) (in general, the concentration at which the toxic effect on the cells reaches its halfway point) at 5 days is more than 100 µM.

For `c1cc2cccc3c4ccc(-c5cn(CCN6CCOCC6)nn5)c5cccc(c(c1)c23)c54` [Compound 2a, 4-(2-(4-(Perylen-3-yl)-1H-1,2,3-triazol-1-yl)ethyl)morpholine], the EC50 is 0.47 ± 0.16 µM in data set [1] (Vero), 11.3 ± 1.8 µM in data set [2] and 20.6 ± 8 µM in data set [4]. The CC50 at 5 days in data set [3] is more than 100 µM. Besides, in data set [5], the CC50 at 24 h is more than 100 µM.

Turning to `CCOC(=O)C1=C[C@@H](OC(CC)CC)[C@H](NC(C)=O)[C@@H](N)C1` [Tamiflu, Oseltamivir phosphate, reference compound], in data set [4], the EC50 was 0.02 µM. Besides, the CC50 at 24 h in data set [5] was more than 100 µM. Moreover, in data set [6] (20 mg/kg intragastric, BALB/c mice), the “Average Life Expectancy (M ± SEM)” value is given as 11.4 ± 1.1 days. In addition, in data set [6] (20 mg/kg intragastric, […]), the “Protective Index (PI)” value was 56%. Moreover, in data set [6] (mouse, in vivo), the “Mortality Rate” value is given as 40% and the “Reduction in body weight (maximum)” value worked out at 24.0%.

Turning to `CC(C)[Si]1(C(C)C)OC[C@H]2O[C@@H](n3cc(C#Cc4ccc5c6cccc7cccc(c8cccc4c85)c76)c(=O)[nH]c3=O)[C@H](O)[C@@H]2O[Si](C(C)C)(C(C)C)O1` [Compound 5, 3′,5′-O-(Tetraisopropyldisiloxan-1,3-diyl)-5-(perylen-3-ylethynyl)uridine], the concentration giving a half-maximal response (EC50) in data set [1] (Vero) is 1.17 ± 0.55 µM. In addition, in data set [2], the EC50 is more than 100 µM and the “Activity against SARS-CoV-2 (in words)” value is recorded as “did not demonstrate any activity”. Moreover, the CC50 at 5 days in data set [3] is more than 100 µM.

With `c1cc2cccc3c4ccc(-c5cn(CCCN6CCOCC6)nn5)c5cccc(c(c1)c23)c54` [Compound 2b, 4-(3-(4-(Perylen-3-yl)-1H-1,2,3-triazol-1-yl)propyl)morpholine], the values for the EC50 in data set [1] (Vero), in data set [2] and in data set [4] were more than 100 µM, more than 100 µM and 62 ± 22 µM, respectively. Further, the “Activity against CHIKV (in words)” value in data set [1] is “did not demonstrate any activity”. Besides, in data set [2], the “Activity against SARS-CoV-2 (in words)” value was “did not demonstrate any activity”. Moreover, the cytotoxic concentration (CC50) at 5 days in data set [3] was more than 100 µM. Further, the half-maximal cytotoxic concentration (CC50) at 24 h in data set [5] was more than 100 µM.

For `O=c1[nH]c(=O)n([C@@H]2O[C@H](CO)[C@@H](O)[C@@H]2O)cc1C#Cc1ccc2c3cccc4cccc(c5cccc1c52)c43` [aUY11, 5-(Perylen-3-yl)ethynyl-arabino-uridine, reference compound], in data set [7], the “Solubility in water (in words)” value is recorded as “no solubility”. Besides, in data set [7] (setting [8]), the “Solubility in Water” value was “insoluble”.

Consider `CC(C)[C@H](NC(=O)OC(C)(C)C)C(=O)O[C@@H]1[C@H](O)[C@@H](CO)O[C@H]1n1cc(C#Cc2ccc3c4cccc5cccc(c6cccc2c63)c54)c(=O)[nH]c1=O` [Compound 7, 2′-O-(N-Boc-L-valinyl)-5-(perylen-3-ylethynyl)uridine], for which the 50% effective concentration (EC50) in data set [1] (Vero) is less than 0.016 µM; in data set [2] it was 0.075 ± 0.018 µM; in data set [4], 4.6 ± 1 µM. Moreover, in data set [3], the cytotoxic concentration (CC50) at 5 days was 98 ± 17 µM. The half-maximal cytotoxic concentration (CC50) at 24 h in data set [5] amounted to 62 ± 24 µM.

In the case of `C[N+]1(CCCn2cc(-c3ccc4c5cccc6cccc(c7cccc3c74)c65)nn2)CCOCC1.[I-]` [Compound 3b, 4-Methyl-4-(3-(4-(Perylen-3-yl)-1H-1,2,3-triazol-1-yl)propyl)morpholin-4-ium iodide], the EC50 in data set [1] (Vero) is 10.7 ± 2.6 µM; in data set [2], 9.2 ± 4.3 µM; in data set [4] it was more than 100 µM. For the same compound, the “Activity against CHIKV (in words)” value in data set [1] is reported as “had activity”. The “Activity against SARS-CoV-2 (in words)” value in data set [2] is recorded as “had activity”. Also, the CC50 at 5 days in data set [3] was more than 100 µM. Besides, the CC50 at 24 h in data set [5] was more than 100 µM. In addition, the solubility – broadly, the dissolved amount per volume that the medium holds – at 30 min in data set [7] (setting [8]) came to 5 mM.

Consider `CC(C)[C@H](NC(=O)OC(C)(C)C)C(=O)O[C@@H]1[C@@H]2O[Si](C(C)C)(C(C)C)O[Si](C(C)C)(C(C)C)OC[C@H]2O[C@H]1n1cc(C#Cc2ccc3c4cccc5cccc(c6cccc2c63)c54)c(=O)[nH]c1=O` [Compound 6, 2′-O-(N-Boc-L-valinyl)-3′,5′-O-(tetraisopropyldisiloxane-1,3-diyl)-5-(perylen-3-ylethynyl)uridine], for which the EC50 in data set [1] (Vero) is more than 100 µM; in data set [2] it was more than 100 µM; in data set [4], 31 ± 10 µM. Further, the “Activity against CHIKV (in words)” value in data set [1] is on record as “did not demonstrate any activity”. Moreover, the “Activity against SARS-CoV-2 (in words)” value in data set [2] is “did not demonstrate any activity”. For the same compound, the cytotoxic concentration (CC50) at 5 days in data set [3] was more than 100 µM. In addition, the 50% cytotoxic concentration (CC50) at 24 h in data set [5] is more than 100 µM.

For `C[N+]1(CCn2cc(-c3ccc4c5cccc6cccc(c7cccc3c74)c65)nn2)CCOCC1.[I-]` [Compound 3a, 4-Methyl-4-(2-(4-(perylen-3-yl)-1H-1,2,3-triazol-1-yl)ethyl)morpholin-4-ium iodide], the figures for the EC50 in data set [1] (Vero), in data set [2] and in data set [4] were 11.3 ± 9 µM, 1.88 ± 0.88 µM and 49 ± 19 µM, respectively. Besides, the CC50 at 5 days in data set [3] was more than 100 µM. For the same compound, the CC50 at 24 h in data set [5] was more than 100 µM. Also, in data set [7] (setting [8]), the solubility at 30 min came out at 3.4 mM.

On to `CC(C)[C@H](N)C(=O)O[C@@H]1[C@H](O)[C@@H](CO)O[C@H]1n1cc(C#Cc2ccc3c4cccc5cccc(c6cccc2c63)c54)c(=O)[nH]c1=O` [Compound 8, 2′-O-L-Valinyl-5-(perylen-3-ylethynyl)uridine], for which the EC50 worked out at 0.55 ± 0.33 µM in data set [1] (Vero), 1.28 ± 0.4 µM in data set [2] and 3.8 ± 1.3 µM in data set [4]. Besides, the 50% cytotoxic concentration (CC50) at 5 days in data set [3] was more than 100 µM. In data set [5], the cytotoxic concentration (CC50) at 24 h is more than 100 µM. Besides, the “Solubility in water (in words)” value in data set [7] is “poor”. Further, in data set [7] (setting [8]), the solubility at 30 min came to 0.1 mM (≈ 61.8 µg/mL).
